Experimental data from patent US8071581B2, “Triazolopyridazine protein kinase modulators” (SGX Pharmaceuticals, Inc., priority 2006, dated 2011).

Tests used:
GTL16 = GTL16 cell assay (EC50); assay type: cell-based; settings: Homo sapiens, GTL 16
Procedure: Compounds were tested in the following assays in duplicate. 96-well XTT assay: Cells were grown in growth media containing various concentrations of compounds (duplicates) on a 96-well flat bottom plate for 72 hours at 37° C. in 5% CO2. The starting cell number was 5000 cells per well and volume was 120 μl. At the end of the 72-hour incubation, 40 μl of XTT labeling mixture (50:1 solution of sodium 3′-[1-(phenylaminocarbonyl)-3,4-tetrazolium]-bis(4-methoxy-6-nitro) benzene sulfonic acid hydrate and Electron-coupling reagent: PMS (N-methyl dibenzopyrazine methyl sulfate) were added to each well of the plate. After an additional 2-6 hours […] with a spectrophotometer.

[1] = target: MET kinase (c-MET), kinase domain of human Met (Homo sapiens, UniProt P08581); assay: MET luminescence-based enzyme assay (Kinase-Glo)
MET kinase (c-MET), kinase domain of human Met, sequence (P08581 1078-1345 limits assumed): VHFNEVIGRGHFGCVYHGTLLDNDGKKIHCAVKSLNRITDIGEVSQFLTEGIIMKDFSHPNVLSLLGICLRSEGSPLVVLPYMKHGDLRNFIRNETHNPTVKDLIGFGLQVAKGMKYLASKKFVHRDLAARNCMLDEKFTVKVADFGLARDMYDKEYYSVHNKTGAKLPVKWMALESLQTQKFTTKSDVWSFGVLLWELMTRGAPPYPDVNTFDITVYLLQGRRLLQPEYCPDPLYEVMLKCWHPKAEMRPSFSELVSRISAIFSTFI

| SMILES | EC50 (GTL16; Table 1) [nM] | IC50 [1] [nM] | EC50 (GTL16; Table 2) [nM] |
| --- | --- | --- | --- |
| N#Cc1cccc(-c2ccc3nnc(Cc4c(F)cc5ncccc5c4F)n3n2)c1 [compound 88] | < 100 | < 100 |  |
| CNC(=O)c1ccc(-c2ccc3nnc(C(C)c4ccc5ncccc5c4)n3n2)cc1F (centres unmarked) [compound 80] | < 100 | < 100 |  |
| CCNC(=O)c1cccc(-c2ccc3nnc(Cc4ccc5ncccc5c4)n3n2)c1 [compound 47] | 100 to 1000 | < 100 |  |
| N#Cc1cccc(-c2ccc3nnc(C(F)c4ccc5ncccc5c4)n3n2)c1 (centres unmarked) [compound 22] | 1000 to 10000 | 100 to 1000 |  |
| O=S(=O)(c1ccc(-c2ccc3nnc(Cc4ccc5ncccc5c4)n3n2)cc1)N1CCOCC1 [compound 62] | 100 to 1000 | < 100 |  |
| Fc1ccc(-c2ccc3nnc(Cc4ccc5ncccc5c4)n3n2)cc1 [compound 63] | 100 to 1000 | 100 to 1000 |  |
| Fc1ccccc1-c1ccc2nnc(Cc3ccc4ncccc4c3)n2n1 [compound 53] | 100 to 1000 | 100 to 1000 |  |
| CCC(=O)Cn1cc(-c2cnc3ccc(Cc4nnc5ccc(C)nn45)cc3c2)cn1 [compound 143] |  | < 100 | < 100 |
| NCc1cccc(-c2ccc3nnc(Cc4ccc5ncccc5c4)n3n2)c1 [compound 55] | 100 to 1000 | < 100 |  |
| CC(=O)Nc1ccc(-c2ccc3nnc(Cc4ccc5ncccc5c4)n3n2)cc1 [compound 52] | 100 to 1000 | < 100 |  |
| CNS(=O)(=O)c1ccc(-c2ccc3nnc(Cc4ccc5ncccc5c4)n3n2)cc1 [compound 37] | < 100 | 100 to 1000 |  |
| Cc1ccc2nnc(Cc3c(F)cc4ncc(-c5cnn(CC(=O)O)c5)cc4c3F)n2n1 [compound 151] |  | < 100 | 1000 to 10000 |
| CS(=O)(=O)c1cccc(-c2ccc3nnc(Cc4ccc5ncccc5c4)n3n2)c1 [compound 49] | < 100 | < 100 |  |
| c1cnc2ccc(Cc3nnc4ccc(C5CC5)nn34)cc2c1 [compound 109, 6-(6-Cyclopropyl-[1,2,4]triazolo[4,3-b]pyridazin-3-ylmethyl)-quinoline] | 100 to 1000 | 100 to 1000 |  |
| CNc1ccc(-c2ccc3nnc(Cc4ccc5ncccc5c4)n3n2)cc1 [compound 65] | < 100 | < 100 |  |
| Cc1ccc(-c2ccc3nnc(Cc4ccc5ncccc5c4)n3n2)cc1 [compound 36] | < 100 | < 100 |  |
| Cn1cnc2ccc(Cc3nnc4ccc(-c5ccccc5)nn34)cc21 [compound 68, 3-(3-Methyl-3H-benzoimidazol-5-ylmethyl)-6-phenyl-[1,2,4]triazolo[4,3-b]pyridazine] | 100 to 1000 | 100 to 1000 |  |

| SMILES | EC50 (GTL16; Table 1) [nM] | IC50 [1] [nM] | EC50 (GTL16; Table 2) [nM] |
| --- | --- | --- | --- |
| Fc1ccc(-c2ccc3nnc(Cc4ccc5ncccc5c4)n3n2)cc1C(F)(F)F [compound 77] | < 100 | 100 to 1000 |  |
| Cn1cc(-c2cnc3cc(F)c(Cc4nnc5cccnn45)c(F)c3c2)cn1 [compound 174] |  | < 100 | 100 to 1000 |
| CCNC(=O)c1ccc(-c2ccc3nnc(Cc4ccc5ncsc5c4)n3n2)cc1F [compound 94] | 100 to 1000 | 100 to 1000 |  |
| CN(C)S(=O)(=O)c1cccc(-c2ccc3nnc(Cc4ccc5ncccc5c4)n3n2)c1 [compound 64] | < 100 | < 100 |  |
| COCCn1cc(-c2cnc3ccc(Cc4nnc5ccc(C)nn45)cc3c2)cn1 [compound 147] |  | < 100 | < 100 |
| CC(=O)N1CC(Cn2cc(-c3cnc4ccc(Cc5nnc6ccc(C)nn56)cc4c3)cn2)C1 [compound 181] |  | < 100 | 100 to 1000 |
| CNC(=O)c1ccc(-c2ccc3nnc(Cc4c(F)cc5ncccc5c4F)n3n2)cc1F [compound 89] | < 100 | < 100 |  |
| Cc1ccc2nnc(Cc3ccc4ncc(-c5cnn(CCC#N)c5)cc4c3)n2n1 [compound 148] |  | < 100 | < 100 |
| Cc1cc(F)cc(-c2ccc3nnc(Cc4ccc5ncccc5c4)n3n2)c1 [compound 76] | < 100 | < 100 |  |
| CCc1ccc2nnc(Cc3cc4cc(-c5cnn(C)c5)cnc4cc3F)n2n1 [compound 165] |  | < 100 | < 100 |
| Cc1ccc2nnc(Cc3ccc4ncc(-c5cnn(CCO)c5)cc4c3)n2n1 [compound 144, 2-{4-[6-(6-Methyl-[1,2,4]triazolo[4,3-b]pyridazin-3-ylmethyl)-quinolin-3-yl]pyrazol-1-yl}-ethanol] |  | < 100 | 100 to 1000 |
| Fc1ccc(Oc2ccc3nnc(Cc4ccc5ncccc5c4)n3n2)cc1 [compound 6] | 100 to 1000 | 100 to 1000 |  |
| CNC(=O)c1cc(F)cc(-c2ccc3nnc(Cc4ccc5ncccc5c4)n3n2)c1 [compound 56] | 100 to 1000 | 100 to 1000 |  |
| c1ccc(-c2ccc3nnc(Cc4ccc5nc[nH]c5c4)n3n2)cc1 [compound 45, 3-(3H-Benzoimidazol-5-ylmethyl)-6-phenyl-[1,2,4]triazolo[4,3-b]pyridazine] | 100 to 1000 | 100 to 1000 |  |
| NS(=O)(=O)c1cccc(-c2ccc3nnc(Cc4ccc5ncccc5c4)n3n2)c1 [compound 25] | 100 to 1000 | < 100 |  |
| CC(c1ccc2ncsc2c1)c1nnc2ccc(-c3cccc(C#N)c3)nn12 (centres unmarked) [compound 81] | < 100 | < 100 |  |
| CCN1CC(n2cc(-c3cnc4ccc(Cc5nnc6ccc(C)nn56)cc4c3)cn2)C1 [compound 171, 3-[1-(1-Ethyl-azetidin-3-yl)-1H-pyrazol-4-yl]-6-(6-methyl-[1,2,4]triazolo[4,3-b]pyridazin-3-ylmethyl)-quinoline] |  | < 100 | < 100 |

Next, values leading:

| EC50 (GTL16; Table 1) [nM] | IC50 [1] [nM] | EC50 (GTL16; Table 2) [nM] | SMILES |
| --- | --- | --- | --- |
|  | < 100 | < 100 | CCc1ccc2nnc(Cc3ccc4ncc(-c5cnn(C)c5)cc4c3)n2n1 [compound 157, 6-(6-Ethyl-[1,2,4]triazolo[4,3-b]pyridazin-3-ylmethyl)-3-(1-methyl-1H-pyrazol-4-yl)-quinoline] |
| < 100 | < 100 |  | Cn1cc(-c2ccc3nnc(Cc4ccc5ncsc5c4)n3n2)cn1 [compound 96] |
| < 100 | < 100 |  | CNS(=O)(=O)c1cccc(-c2ccc3nnc(Cc4ccc5ncccc5c4)n3n2)c1 [compound 48] |
|  | 100 to 1000 | 100 to 1000 | Cc1ccc2nnc(Cc3ccc4ncc(-c5cnc[nH]5)cc4c3)n2n1 [compound 142, 3-(1H-Imidazol-4-yl)-6-(6-methyl-[1,2,4]triazolo[4,3-b]pyridazin-3-ylmethyl)-quinoline] |
| < 100 | < 100 |  | Cn1cc(-c2ccc3nnc(Cc4cc5cccnc5cc4F)n3n2)cn1 [compound 90] |
|  | < 100 | < 100 | Cn1cc(-c2cnc3ccc(Cc4nnc5cccnn45)cc3c2)cn1 [compound 139] |
| < 100 | < 100 |  | C[C@@H](c1ccc2ncsc2c1)c1nnc2ccc(-c3cccc(C#N)c3)nn12 [compound 103, (S)-3-[3-(1-Benzothiazol-6-yl-ethyl)-[1,2,4]triazolo[4,3-b]pyridazin-6-yl]-benzonitrile] |
|  | < 100 | 10000 to 50000 | Cn1cc(-c2cnc3cc(F)c(Cc4nnc5cccnn45)cc3c2)cn1 [compound 167] |
|  | < 100 | 100 to 1000 | Cc1ccc2nnc(Cc3c[nH]c4ncc(-c5cnn(C)c5)cc34)n2n1 [compound 177, 6-Methyl-3-[5-(1-methyl-1H-pyrazol-4-yl)-1H-pyrrolo[2,3-b]pyridine-3-ylmethyl]-[1,2,4]triazolo[4,3-b]pyridazine] |
|  | < 100 | 100 to 1000 | Cn1cc(-c2cnc3ccc(Cc4nnc5ccc(C(F)(F)F)nn45)cc3c2)cn1 [compound 123, 3-(1-Methyl-1H-pyrazol-4-yl)-6-(6-trifluoromethyl-[1,2,4]triazolo[4,3-b]pyridazin-3-ylmethyl)-quinoline] |
| 100 to 1000 | 100 to 1000 |  | CN(C)C(=O)c1cc(F)cc(-c2ccc3nnc(Cc4ccc5ncccc5c4)n3n2)c1 [compound 71] |
|  | < 100 | < 100 | Cc1ccc2nnc(Cc3ccc4ncc(-c5cnn(CCN6CCOCC6)c5)cc4c3)n2n1 [compound 133] |
|  | < 100 | < 100 | Cc1ccc2nnc(Cc3ccc4ncc(-c5cnn(CCN6CCCC6)c5)cc4c3)n2n1 [compound 170] |
| < 100 | < 100 |  | CCNS(=O)(=O)c1cccc(-c2ccc3nnc(Cc4ccc5ncccc5c4)n3n2)c1 [compound 3] |
|  | < 100 | < 100 | Cc1ccc2nnc(Cc3ccc4ncc(-c5cccnc5)cc4c3)n2n1 [compound 131] |
